Data: patent EP4640674A1, “CRYSTAL FORMS OF ETHOXIMOD, PREPARATION METHOD THEREFOR AND USE THEREOF” (Jiankuan (Suzhou) Biotechnology Co., Ltd, priority 2022, dated 2024)
Where “and” joins values, the source holds several entries; their conditions need not be identical. Identical values can stand only once.

Tests used:
Type in all cases: physicochemical
[1] = Dynamic solubility at 37 °C (HPLC; residual solid by XRPD); conditions: for solubility at 1 h / solubility at 2 h / solubility at 4 h / solubility at 24 h: thermodynamic from solid
Experimental: Samples of the crystal form A and the crystal form B of ethoximod were taken and prepared into saturated solutions at 37 °C in Fasted State Simulated Intestinal Fluid (FaSSIF, pH = 8.0), Fed State Simulated Intestinal Fluid (FeSSIF, pH = 5.0), Simulated Gastric Fluid (SGF, pH = 1.0), a hydrochloric acid aqueous solution (pH = 1.0), an acetic acid-sodium acetate buffer system (pH = 4.0), a phosphate buffer system (pH = 6.8) and water. After 1 h/2 h/4 h/24 h, filtration was performed to obtain solutions, and actual concentrations of the samples in the solutions were measured through high-performance liquid chromatography (HPLC) (diluting the filtrates as needed). Crystal forms of the solids before and after the experiment were characterized through XRPD to check whether phase transition had occurred. Table 4 Comparison of solubility of crystal form A and crystal form B

[2] = Mechanical stability: grinding, XRPD before and after; conditions: ground with an agate mortar for 5 min; hydrochloride
Experimental: 50 mg crystal form A of ethoximod and 50 mg crystal form B of ethoximod were weighed and ground clockwise with an agate mortar for 5 min, and the samples before and after the grinding were subjected to an XRPD test.

[3] = Compressibility: tableting evaluation; conditions: punch die with a diameter of 6 mm, hydrochloride
Experimental: The crystal form A and the crystal form B of ethoximod were taken for preparation tableting evaluation. In this experiment, samples were subjected to tableting under the same pressure by using a punch die with a diameter of 6 mm, radial crushing forces F, diameters D and thicknesses L of the tablets were measured after the elastic recovery of the tablets, and the tensile strength of the tablets was calculated according to the following formula: tensile strength Ts = 2F/ΠDL.

[4] = Bulk density and tap density test, Hausner ratio and compressibility; conditions: hydrochloride
Experimental: In this experiment, the measurement was performed by using a tap instrument according to a fixed volume method. Specific operations are as follows: the weighed powders were loaded into a 50 mL graduated cylinder, and the graduated cylinder was fixed on a support; the tap instrument was set to vibrate 55±5 times per minute for 6-8 min; a change in a volume of the powders in the measuring cup was measured. A ratio of a mass of the powders to a volume (50 mL) of the materials before the tap is the bulk density of the powders, and a ratio of the mass of the powders to a volume of the materials after the tap is the tap density of the powders. Methods for converting Hausner ratio and compressibility are as follows, and the description of Hausner ratio and flowability is shown in Table 8: Table 6 Physical properties of crystal form A and crystal form B

[5] = Dynamic vapor sorption (hygroscopicity)
Source text: In the examples of the present application, the instrument used for the X-ray powder diffraction test is the D2 Phaser produced by Bruker. The instrument used for the differential scanning calorimetry test is the differential scanning calorimeter DSC 250 produced by TA Instruments. The instrument used for the thermogravimetric analysis is the thermogravimetric analyzer TGA 55 produced by TA Instruments. The instrument used for the FT-IR test is the Fourier infrared spectrometer ID1-summit produced by Thermo. The instrument used for the dynamic vapor sorption test is the DVS Intrinsic produced by Surface Measurement Systems (SMS). The instrument used for the microscopy is the microscope NJF-120A produced by Suzhou Nanguang Electronic Technology Co., Ltd.
Samples of the crystal form A and the crystal form B of ethoximod were taken for a dynamic vapor sorption test.

[6] = Adhesion test in ziplock bag; conditions: ziplock bag flipped at 5 rpm, 10 min in each direction; hydrochloride
Experimental: Each of the crystal form A and the crystal form B of ethoximod was taken and put into a ziplock bag with a fixed size. A seal was sealed, and the ziplock bag was flipped at a rotation speed of 5 rpm for 10 min. A direction was changed, and the ziplock bag continued to be flipped at a fixed rotation speed for 10 min. Raw materials were poured out from the bag, a mass of the remaining raw materials was weighed accurately, and an adhesion rate was calculated.

[7] = Angle of repose test (flowability); conditions: hydrochloride
Experimental: Powder properties of active pharmaceutical ingredients affect the flowability of the active pharmaceutical ingredients. The crystal form A and the crystal form B of ethoximod was subjected to angle of repose and Hausner ratio tests to compare the flowability of the crystal form A and the crystal form B of ethoximod. […] In this experiment, angles of repose of active pharmaceutical ingredients of the two crystal forms were measured through an injection method in combination with a residual cone method, and the flowability of the active pharmaceutical ingredients of the two crystal forms was analyzed. Specific operations are as follows: powders were injected into a center of a disc with a limited diameter, the injection was stopped until materials on an oblique side of a powder accumulation layer automatically flew out along an edge of the disc, a height (H) of a cone was measured, and the angle of repose was calculated according to the diameter (D = 2r) of the disc with tanQ = H/r.

In the case of `CCc1nc(-c2ccc(-c3ccc(CCC(N)(CO)CO)cc3)cc2)co1.Cl` [crystal form A, 2-amino-2-{2-(4'-(2-ethyloxazol-4-yl)-[1,1'-biphenyl]-4-yl)ethyl}-1,3-propylene glycol hydrochloride], the “crystal form of the solid” value ([1]; FaSSIF (pH = 8.0), 37 °C, 1 h, hydrochloride) is reported as “A+free alkali”, the “crystal form of the solid” value ([1]; FaSSIF (pH = 8.0), 37 °C, 2 h, hydrochloride) is reported as “A+free alkali” and the “crystal form of the solid” value ([1]; FaSSIF (pH = 8.0), 37 °C, 4 h, hydrochloride) is reported as “A+free alkali”. For the same molecule, the “crystal form of the solid” value ([1]; FaSSIF (pH = 8.0), 37 °C, 24 h, hydrochloride) was “A+free alkali”, the solubility at 1 h ([1]; Fasted State Simulated Intestinal Fluid (FaSSIF), 37 °C, pH 8, fassif, FaSSIF (pH = 8.0), 1 h) was 10 µg/mL and the solubility at 2 h ([1]; Fasted State Simulated Intestinal Fluid (FaSSIF), 37 °C, pH 8, fassif, FaSSIF (pH = 8.0), 2 h) was 9 µg/mL. For the same molecule, the solubility at 4 h ([1]; Fasted State Simulated Intestinal Fluid (FaSSIF), 37 °C, pH 8, fassif, FaSSIF (pH = 8.0), 4 h) was 11 µg/mL, the solubility at 24 h ([1]; Fasted State Simulated Intestinal Fluid (FaSSIF), 37 °C, pH 8, fassif, FaSSIF (pH = 8.0), 24 h) was 26 µg/mL and the solubility ([1]; FeSSIF (pH = 5.0), 37 °C, 4 h, hydrochloride) was 2520 µg/mL. It also gave a solubility at 1 h ([1]; Fed State Simulated Intestinal Fluid (FeSSIF), 37 °C, pH 5, fessif, FeSSIF (pH = 5.0), 1 h) of 1540 µg/mL, a solubility at 2 h ([1]; Fed State Simulated Intestinal Fluid (FeSSIF), 37 °C, pH 5, fessif, FeSSIF (pH = 5.0), 2 h) of 2000 µg/mL and a solubility at 24 h ([1]; Fed State Simulated Intestinal Fluid (FeSSIF), 37 °C, pH 5, fessif, FeSSIF (pH = 5.0), 24 h) of 2670 µg/mL. It also gave a solubility at 1 h ([1]; Simulated Gastric Fluid (SGF), 37 °C, pH 1, simulated gastric fluid, SGF (pH = 1.0), 1 h) of 240 µg/mL, a solubility at 2 h ([1]; Simulated Gastric Fluid (SGF), 37 °C, pH 1, simulated gastric fluid, SGF (pH = 1.0), 2 h) of 260 µg/mL and a solubility at 4 h ([1]; Simulated Gastric Fluid (SGF), 37 °C, pH 1, simulated gastric fluid, SGF (pH = 1.0), 4 h) of 260 µg/mL. The solubility at 24 h ([1]; Simulated Gastric Fluid (SGF), 37 °C, pH 1, simulated gastric fluid, SGF (pH = 1.0), 24 h) was 270 µg/mL, the solubility at 1 h ([1]; acetic acid-sodium acetate buffer, 37 °C, pH 4, aqueous buffer, acetic acid-sodium acetate buffer pH = 4.0, 37 °C, 1 h) was 2490 µg/mL and the solubility at 2 h ([1]; acetic acid-sodium acetate buffer, 37 °C, pH 4, aqueous buffer, acetic acid-sodium acetate buffer pH = 4.0, 37 °C, 2 h) was 2480 µg/mL. For the same molecule, the solubility at 4 h ([1]; acetic acid-sodium acetate buffer, 37 °C, pH 4, aqueous buffer, acetic acid-sodium acetate buffer pH = 4.0, 37 °C, 4 h) was 2740 µg/mL, the solubility at 24 h ([1]; acetic acid-sodium acetate buffer, 37 °C, pH 4, aqueous buffer, acetic acid-sodium acetate buffer pH = 4.0, 37 °C, 24 h) was 2590 µg/mL and the solubility at 1 h ([1]; hydrochloric acid aqueous solution, 37 °C, pH 1, simulated gastric fluid, hydrochloric acid aqueous solution pH = 1.0, 37 °C, 1 h) was 280 µg/mL. For the same molecule, the solubility at 2 h ([1]; hydrochloric acid aqueous solution, 37 °C, pH 1, simulated gastric fluid, hydrochloric acid aqueous solution pH = 1.0, 37 °C, 2 h) was 280 µg/mL, the solubility at 4 h ([1]; hydrochloric acid aqueous solution, 37 °C, pH 1, simulated gastric fluid, hydrochloric acid aqueous solution pH = 1.0, 37 °C, 4 h) was 290 µg/mL and the solubility at 24 h ([1]; hydrochloric acid aqueous solution, 37 °C, pH 1, simulated gastric fluid, hydrochloric acid aqueous solution pH = 1.0, 37 °C, 24 h) was 380 µg/mL. For the same molecule, the “crystal form of the solid” value ([1]; phosphate buffer pH = 6.8, 37 °C, 1 h) was “free alkali”, the solubility ([1]; phosphate buffer pH = 6.8, 37 °C, 1 h, hydrochloride) was 0.2 µg/mL and the “crystal form of the solid” value ([1]; phosphate buffer pH = 6.8, 37 °C, 2 h) was “free alkali”. For the same molecule, the “crystal form of the solid” value ([1]; phosphate buffer pH = 6.8, 37 °C, 4 h) was “free alkali”, the “crystal form of the solid” value ([1]; phosphate buffer pH = 6.8, 37 °C, 24 h) was “free alkali” and the solubility ([1]; phosphate buffer pH = 6.8, 37 °C, 24 h, hydrochloride) was 0.76 µg/mL. For the same molecule, the solubility at 2 h ([1]; phosphate buffer, 37 °C, pH 6.8, aqueous buffer, phosphate buffer pH = 6.8, 37 °C, 2 h) was 0.07 µg/mL, the solubility at 4 h ([1]; phosphate buffer, 37 °C, pH 6.8, aqueous buffer, phosphate buffer pH = 6.8, 37 °C, 4 h) was 0.14 µg/mL and the solubility at 1 h ([1]; water, 37 °C, 1 h) was 2080 µg/mL. It also gave a solubility at 2 h ([1]; water, 37 °C, 2 h) of 2150 µg/mL, a solubility at 4 h ([1]; water, 37 °C, 4 h) of 2140 µg/mL and a solubility at 24 h ([1]; water, 37 °C, 24 h) of 2260 µg/mL. The “crystal form after grinding (XRPD)” value [2] was “remains unchanged”, the “Radial Crushing Force F (Hardness/N)” value ([3]; tablet) was 5 N and 3 N and the “Experimental Phenomenon” value ([3]; tableting) was “slight sticking”. For the same molecule, the Compressibility ([4]; (tap density - bulk density)/tap density) was 54.0, the “Bulk Density” value [4] was 0.2578 g/mL and the “Tap Density” value [4] was 0.5604 g/mL. For the same molecule, the “Hausner Ratio” value ([4]; tap density/bulk density) was 2.2, the “vapor sorption weight gain” value ([5]; 24.3 °C and 90% RH) was 0.14% and the “hygroscopic weight gain (vapor sorption)” value ([5]; 25 °C/90% RH, hydrochloride) was 0.14%. The hygroscopicity ([5]; DVS, 90% RH, hydrochloride) was “no or almost no hygroscopicity”, the “crystal form after the dynamic vapor sorption test (XRPD)” value ([5]; after DVS test, hydrochloride) was “not subjected to crystal transformation” and the “Adhesion Amount Per Unit Area” value [6] was 0.002 g/m^2. For the same molecule, the “Weight of API Adsorbed in Bag” value [6] was 0.1053 g, the “Average of Angles of Repose” value [7] was 57.2 ° and the “Angle of Repose” value ([7]; single determination) was 56.3 ° and 58.0 °.
